Tests used:
Assay in all cases: relative viability (nuclei count vs DMSO), 5 days (fraction); higher = more cells survive
Metformin + Palbociclib = compound: CN(C)C(=N)NC(=N)N [Metformin] + CC(=O)c1c(C)c2cnc(Nc3ccc(N4CCNCC4)cn3)nc2n(C2CCCC2)c1=O [Palbociclib] (partner 0.5 µM)
Outline: (§1)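 Dosing by pin tool came one day after lung cancer cell lines were seeded in 1536-well plates, using either one drug or a fixed anchor-drug dose plus five library-drug doses (not always all listed) in √10 steps. After 5 days, nuclei were counted on 4× images. Relative viability is treated-well nuclei count divided by vehicle-well nuclei count, and values are medians of duplicate plates.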

Metformin + Vorinostat = compound: CN(C)C(=N)NC(=N)N [Metformin] + O=C(CCCCCCC(=O)Nc1ccccc1)NO [Vorinostat] (partner 1 µM)
Outline: as §1

Metformin + Linsitinib = compound: CN(C)C(=N)NC(=N)N [Metformin] + C[C@]1(O)C[C@@H](c2nc(-c3ccc4ccc(-c5ccccc5)nc4c3)c3c(N)nccn32)C1 [Linsitinib] (partner 1 µM)
Outline: as §1

Apatinib + Pictilisib = compound: N#CC1(c2ccc(NC(=O)c3cccnc3NCc3ccncc3)cc2)CCCC1 [Apatinib] + CS(=O)(=O)N1CCN(Cc2cc3nc(-c4cccc5[nH]ncc45)nc(N4CCOCC4)c3s2)CC1 [Pictilisib] (partner 1 µM)
Outline: as §1

## NCI-H460
Metformin + Palbociclib; first compound 31.62 µM
  relative viability: 0.191
Metformin + Palbociclib; first compound 100 µM
  relative viability: 0.249
Metformin + Palbociclib; first compound 316.23 µM
  relative viability: 0.105
Metformin + Palbociclib; first compound 1000 µM
  relative viability: 0.148
Metformin + Vorinostat; first compound 31.62 µM
  relative viability: 0.667
Metformin + Vorinostat; first compound 100 µM
  relative viability: 0.542
Metformin + Vorinostat; first compound 316.23 µM
  relative viability: 0.581
Metformin + Vorinostat; first compound 1000 µM
  relative viability: 0.659
Metformin + Linsitinib; first compound 31.62 µM
  relative viability: 0.772
Metformin + Linsitinib; first compound 100 µM
  relative viability: 0.774
Metformin + Linsitinib; first compound 316.23 µM
  relative viability: 0.662
Metformin + Linsitinib; first compound 1000 µM
  relative viability: 0.843
Apatinib + Pictilisib; first compound 0.08 µM
  relative viability: 0.335
Apatinib + Pictilisib; first compound 0.253 µM
  relative viability: 0.374
Apatinib + Pictilisib; first compound 0.8 µM
  relative viability: 0.452
Apatinib + Pictilisib; first compound 2.53 µM
  relative viability: 0.391
Apatinib + Pictilisib; first compound 8 µM
  relative viability: 0.458

— the supplement of paper PMC10307832
